≈ marks a conversion by molar mass, not a printed value. Where two headings read alike, the source gives them in different places.
Tests used:
Experiment in all cases: minimum inhibition concentration (MIC)
Assay type in all cases: cell-based
[1] = system: Sh. dysenteriae JS 11910; settings: Shigella dysenteriae, JS11910
Description: (§1) Regarding the antimicrobial activity of the tylosin derivatives of this invention shown by formula I, the minimum inhibition concentration (MIC) is shown in Table I.

[2] = system: Kleb. pneumoniae PCI 602; settings: Klebsiella pneumoniae, PCI602
Description: as §1

[3] = system: E. coli NIHJ; settings: Escherichia coli
Description: as §1

[4] = system: Sal. enteritidis 1891; settings: Salmonella enterica
Description: as §1

[5] = system: Staph. aureus 209 P; settings: Staphylococcus aureus
Description: as §1

[6] = system: Staph. aureus MS 10225; settings: Staphylococcus aureus, MS10225
Description: as §1

[7] = system: Ataph. aureus MS 9861
Description: as §1

[8] = system: B. subtilis NRRL B-558; settings: Bacillus subtilis, NRRLB558
Description: as §1

[9] = Kleb. pneumoniae PCI 602, read-out: MIC
[10] = Sal. enteritidis 1891, read-out: MIC
[11] = Staph. aureus 209 P, read-out: MIC
[12] = B. subtilis NRRL B-558, read-out: MIC

**Q.** Which MIC [1] does the source give for CCC1OC(=O)CC(O)C(C)C(OC2OC(C)CC(N(C)C)C2O)C(CC=O)CC(C)C(=O)C=CC(C)=CC1CSc1ccccn1 (centres unmarked) [Example 27, 23,4'-dideoxy-23-(pyridine-2-ylthio) mycaminosyl tylonolide] here?
**A.** 0.2 µg/mL (≈ 0.296 µM)

**Q.** What about the MIC [2, 9] of the same compound?
**A.** 1.56 µg/mL (≈ 2.31 µM)

**Q.** And the MIC [3]?
**A.** 12.5 µg/mL (≈ 18.5 µM)

**Q.** What about the MIC [4, 10] of the same compound?
**A.** 0.78 µg/mL (≈ 1.16 µM)

**Q.** And the MIC [5, 11]?
**A.** < 0.2 µg/mL

**Q.** And the MIC [6]?
**A.** 0.39 µg/mL (≈ 0.578 µM)

**Q.** What about the MIC [7] of the same compound?
**A.** 0.78 µg/mL (≈ 1.16 µM)

**Q.** What about the MIC [8, 12] of the same compound?
**A.** < 0.2 µg/mL

**Q.** With CCC1OC(=O)CC(O)C(C)C(OC2OC(C)CC(N(C)C)C2O)C(CC=O)CC(C)C(=O)C=CC(C)=CC1CO (centres unmarked) [Example 2, 4'-deoxy mycaminosyl tylonolide] as the compound, how does the MIC [1] read?
**A.** < 0.2 µg/mL

**Q.** And the MIC [2, 9]?
**A.** 0.78 µg/mL (≈ 1.34 µM)

**Q.** And the MIC [3]?
**A.** 3.12 µg/mL (≈ 5.36 µM)

**Q.** And the MIC [4, 10]?
**A.** 0.78 µg/mL (≈ 1.34 µM)

**Q.** And the MIC ([5]; 209P)?
**A.** 0.2 µg/mL (≈ 0.344 µM)

**Q.** And the MIC [6]?
**A.** 3.12 µg/mL (≈ 5.36 µM)

**Q.** What about the MIC [7] of the same compound?
**A.** 3.12 µg/mL (≈ 5.36 µM)

**Q.** And the MIC [8, 12]?
**A.** 0.78 µg/mL (≈ 1.34 µM)

**Q.** What does the source list for CCC1OC(=O)CC(O)C(C)C(OC2OC(C)CC(N(C)C)C2O)C(CC=O)CC(C)C(=O)C=CC(C)=CC1COCSC (centres unmarked) [Example 20, 23-O-methylthiomethyl-4'-deoxy mycaminosyl tylonolide]?
**A.** MIC [1]: 0.78 µg/mL (≈ 1.22 µM); MIC [2, 9]: 1.56 µg/mL (≈ 2.43 µM); MIC ([3]; E. coli NIHJ, read-out: MIC): 6.25 µg/mL (≈ 9.74 µM); MIC [4, 10]: 0.78 µg/mL (≈ 1.22 µM); MIC [5, 11]: < 0.2 µg/mL; MIC [6]: 0.78 µg/mL (≈ 1.22 µM); MIC [7]: 3.12 µg/mL (≈ 4.86 µM); MIC [8, 12]: < 0.2 µg/mL

**Q.** For CCC1OC(=O)CC(O)C(C)C(OC2OC(C)CC(N(C)C)C2O)C(CC=O)CC(C)C(=O)C=CC(C)=CC1CCl (centres unmarked) [Example 21, 23-chloro-23,4'-dideoxy mycaminosyl tylonolide], which MIC [1] is on record?
**A.** 0.39 µg/mL (≈ 0.65 µM)

**Q.** And the MIC [2, 9]?
**A.** 1.56 µg/mL (≈ 2.6 µM)

**Q.** What about the MIC ([3]; E. coli NIHJ, read-out: MIC) of the same compound?
**A.** 6.25 µg/mL (≈ 10.4 µM)

**Q.** What about the MIC [4, 10] of the same compound?
**A.** 0.39 µg/mL (≈ 0.65 µM)

**Q.** And the MIC [5, 11]?
**A.** 0.78 µg/mL (≈ 1.3 µM)

**Q.** And the MIC [6]?
**A.** 6.25 µg/mL (≈ 10.4 µM)

**Q.** What about the MIC [7] of the same compound?
**A.** 6.25 µg/mL (≈ 10.4 µM)

**Q.** And the MIC [8, 12]?
**A.** 0.2 µg/mL (≈ 0.333 µM)

**Q.** With CCC1OC(=O)CC(O)C(C)C(OC2OC(C)CC(N(C)C)C2O)C(CC=O)CC(C)C(=O)C=CC(C)=CC1COC(C)=O (centres unmarked) [Example 9, 23-O-acetyl-4'-deoxy mycaminosyl tylonolide] as the compound, how does the MIC [1] read?
**A.** 0.78 µg/mL (≈ 1.25 µM)

**Q.** And the MIC [2, 9]?
**A.** 6.25 µg/mL (≈ 10 µM)

**Q.** And the MIC [3]?
**A.** 6.25 µg/mL (≈ 10 µM)

**Q.** What about the MIC ([4]; ENTERITIDIS) of the same compound?
**A.** 1.56 µg/mL (≈ 2.5 µM)

**Q.** What about the MIC ([5]; 209P) of the same compound?
**A.** 0.2 µg/mL (≈ 0.321 µM)

**Q.** What about the MIC [6] of the same compound?
**A.** 0.78 µg/mL (≈ 1.25 µM)

**Q.** And the MIC [7]?
**A.** 1.56 µg/mL (≈ 2.5 µM)

**Q.** And the MIC [8]?
**A.** 0.39 µg/mL (≈ 0.625 µM)

**Q.** How did the MIC [1] turn out when CCC1OC(=O)CC(O)C(C)C(OC2OC(C)CC(N(C)C)C2O)C(CC=O)CC(C)C(=O)C=CC(C)=CC1COC1CCCS1 (centres unmarked) [Example 18, 23-O-tetrahydrothiofuranyl-4'-deoxy mycaminosyl tylonolide] was run?
**A.** 0.39 µg/mL (≈ 0.584 µM)

**Q.** What about the MIC [2, 9] of the same compound?
**A.** 1.56 µg/mL (≈ 2.34 µM)

**Q.** What about the MIC ([3]; E. coli NIHJ, read-out: MIC) of the same compound?
**A.** 6.25 µg/mL (≈ 9.36 µM)

**Q.** And the MIC [4, 10]?
**A.** 1.56 µg/mL (≈ 2.34 µM)

**Q.** What about the MIC [5, 11] of the same compound?
**A.** < 0.2 µg/mL

**Q.** And the MIC [6]?
**A.** 0.2 µg/mL (≈ 0.299 µM)

**Q.** What about the MIC [7] of the same compound?
**A.** 0.2 µg/mL (≈ 0.299 µM)

**Q.** What about the MIC [8] of the same compound?
**A.** < 0.2 µg/mL

**Q.** Which results are given for CC[C@H]1OC(=O)C[C@@H](O)[C@H](C)[C@@H](O[C@@H]2O[C@H](C)[C@@H](O[C@H]3C[C@@](C)(O)[C@@H](O)[C@H](C)O3)[C@H](N(C)C)[C@H]2O)[C@@H](CC=O)C[C@@H](C)C(=O)/C=C/C(C)=C/[C@@H]1CO[C@@H]1O[C@H](C)[C@@H](O)[C@@H](OC)[C@H]1OC [Tylosin]?
**A.** MIC [1]: 12.5 µg/mL (≈ 13.6 µM); MIC [2, 9]: 25 µg/mL (≈ 27.3 µM); MIC [3]: 100 µg/mL (≈ 109 µM); MIC [4, 10]: 25 µg/mL (≈ 27.3 µM); MIC ([5]; 209P): 0.39 µg/mL (≈ 0.426 µM); MIC [6]: 3.12 µg/mL (≈ 3.41 µM); MIC [7]: 6.25 µg/mL (≈ 6.82 µM)

**Q.** CCC(=O)OCC1C=C(C)C=CC(=O)C(C)CC(CC=O)C(OC2OC(C)CC(N(C)C)C2O)C(C)C(O)CC(=O)OC1CC (centres unmarked) [Example 10, 23-O-propionyl-4'-deoxy mycaminosyl tylonolide] was tested. Which MIC [1] did it give?
**A.** 0.2 µg/mL (≈ 0.314 µM)

**Q.** And the MIC [2]?
**A.** 1.56 µg/mL (≈ 2.45 µM)

**Q.** And the MIC ([3]; E. coli NIHJ, read-out: MIC)?
**A.** 6.25 µg/mL (≈ 9.8 µM)

**Q.** And the MIC [4, 10]?
**A.** 0.78 µg/mL (≈ 1.22 µM)

**Q.** And the MIC [5, 11]?
**A.** 0.2 µg/mL (≈ 0.314 µM)

**Q.** And the MIC [6]?
**A.** 0.2 µg/mL (≈ 0.314 µM)

**Q.** And the MIC [7]?
**A.** 3.12 µg/mL (≈ 4.89 µM)

**Q.** And the MIC [8]?
**A.** < 0.2 µg/mL

**Q.** Which results are given for CCC1OC(=O)CC(O)C(C)C(OC2OC(C)CC(N(C)C)C2O)C(CC=O)CC(C)C(=O)C=CC(C)=CC1COC1CCCCS1 (centres unmarked) [Example 19, 23-O-tetrahydrothiopyranyl-4'-deoxy mycaminosyl tylonolide]?
**A.** MIC [1]: 0.39 µg/mL (≈ 0.572 µM); MIC [2]: 3.12 µg/mL (≈ 4.58 µM); MIC ([3]; E. coli NIHJ, read-out: MIC): 25 µg/mL (≈ 36.7 µM); MIC [4, 10]: 1.56 µg/mL (≈ 2.29 µM); MIC [5, 11]: < 0.2 µg/mL; MIC [6]: < 0.2 µg/mL; MIC [7]: < 0.2 µg/mL; MIC [8]: < 0.2 µg/mL
